The test system of this data set is Bemisia tabaci (whitely) biotype B. The experiment in a line: Leaf dip bioassay, mortality assay for insecticide compounds (Example 20). The conditions noted are these: for LC50% a.i. (*): quantity of pure insecticide achieving 50% mortality; for resistance factor: relative to non-resistant insects. The data set is classed as in vivo. The protocol:
The “leaf dip bioassay” used for testing the activity of insecticides against Bemisia tabaci (whitely) biotype B, was similar to that described by Cahill, M et al, Bull. Entomol. Res. 85, 181-187, 1995.
Cotton plants (Gossypium hirsutum L.) were grown without any exposure to the insecticides. The leaves were cut up into disc shapes and immersed in an aqueous solution of insecticide containing 0.01% of Agral then left to dry at 25° C.
Control leaves were immersed in Agral and distilled water only.
About 20 adult insects were placed onto the small discs of treated cotton leaf.
The insects were allowed to feed and maximum mortality was evaluated at 24 and 48 hours.
LC50% a.i. and LC99% a.i indicate the quantity of active ingredient (i.e pure insecticide) able to achieve mortality for 50% and 99% of the insects tested.

[1] abbreviates: adults on treated cotton leaf discs, maximum mortality evaluated at 24 and 48 hours.

With `C/C(=N\C#N)N(C)Cc1ccc(Cl)nc1` [Acetamiprid], the resistance factor amounted to 21 times. In addition, the “LC50% a.i. (*)” value under setting [1] worked out at 0.00038 ppm. Besides, for the setting “quantity of pure insecticide achieving 99% mortality, adults on treated cotton leaf discs, maximum mortality evaluated at 24 and 48 hours”, the “LC99% a.i. (*)” value came to 0.098 ppm.

`O=[N+]([O-])NC1=NCCN1Cc1ccc(Cl)nc1` [Imidacloprid] displayed a resistance factor of 2336 times. The “LC50% a.i. (*)” value under setting [1] worked out at 4.7 ppm.
